Assay results as given in patent publication US11084826B2, “RSV antiviral pyrazolo- and triazolo-pyrimidine compounds” (Janssen Sciences Ireland Unlimited Company, priority 2015, dated 2021).

Tests used:
[1] = tested on: rgRSV224 virus; experiment: Antiviral activity: inhibition of rgRSV224 (GFP-expressing RSV) replication in HeLa cells, GFP expression read-out; type: cell-based, respiratory syncytial virus (RSV); conditions: human respiratory syncytial virus, HeLa, read-out: RSV HELA pEC50, rgRSV224 virus (MOI=1) in HeLa cells, GFP read-out (converted)
Outline: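 EC50 is the 50% inhibitory concentration for GFP expression, read by laser microscopy three days after rgRSV224 infection (MOI=1) of HeLa cells (3,000/well). Compounds were tested as 9 serial 4-fold dilutions at 0.05% DMSO, and cells were incubated at 37° C under 5% CO2.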

[2] = Cytotoxicity in HeLa cells, ATP content measured with the ATPlite kit; type: cell-based; conditions: human, TOX HELA pCC50

Row | Compound | EC50 [1] | CC50 at 3 days [2] | melting point
1 | CCc1cc(C(=O)N2CCCCCC2C)nc2cc(-c3ccc(NC(=S)NCC4CCCO4)cc3F)nn12 (stereo not drawn) [Compound B13] | 398 nM | > 25100 nM | 210 to 215 °C
2 | CCc1cc(C(=O)N2CCCCCC2C)nc2cc(-c3ccc(NC(=S)NC4CC4)cc3F)nn12 (stereo not drawn) [Compound B14] | 437 nM | > 25100 nM | 220 to 222 °C
3 | CCc1cc(C(=O)N2CCCCCC2C)nc2cc(-c3ccc(N/C(=N/C#N)NCC4CCCO4)cc3F)nn12 (stereo not drawn) [Compound B16] | 589 nM | > 25100 nM | 160 to 165 °C
4 | CCc1cc(C(=O)N2CCCCCC2C)nc2cc(-c3ccc(N/C(=N/C#N)NC4CC4)cc3F)nn12 (stereo not drawn) [Compound B17] | 407 nM | > 25100 nM | 225 to 230 °C
5 | CCc1cc(C(=O)N2CCCCCC2C)nc2cc(-c3ccc(N/C(=N/C#N)NC4CC4)cc3)nn12 (stereo not drawn) [Compound B18] | 1150 nM | > 25100 nM | 222 to 223 °C
6 | CCc1cc(C(=O)N2CCCCCC2C)nc2cc(-c3ccc(NC(=O)OCCO)cc3F)nn12 (stereo not drawn) [Compound C4] | 110 nM | > 25100 nM | 175 to 180 °C
7 | CCc1cc(C(=O)N2CCCCCC2C)nc2cc(-c3ccc(NC(=O)OCC4CCCN4C)cc3F)nn12 (stereo not drawn) [Compound C5] | 178 nM | 13800 nM | 165 to 170 °C
8 | CCc1cc(C(=O)N2CCCCCC2C)nc2cc(-c3ccc(NC(=O)OCCO)cc3)nn12 (stereo not drawn) [Compound C6] | 537 nM | > 25100 nM | 176 to 178 °C
9 | CCOC(=O)Nc1ccc(-c2cc3nc(C(=O)N4CCCCCC4C)cc(CC)n3n2)cc1 (stereo not drawn) [Compound C7] | 1380 nM | > 100000 nM | 195 to 200 °C
10 | CCc1cc(C(=O)N2CCCCCC2C)nc2cc(-c3ccc(NS(C)(=O)=O)cc3F)nn12 (stereo not drawn) [Compound D1] | 288 nM | 51300 nM | 135 to 140 °C
11 | CCc1cc(C(=O)N2CCCCCCC2C)nc2cc(-c3ccc(NS(C)(=O)=O)cc3F)nn12 (stereo not drawn) [Compound D3] | 145 nM | > 25100 nM | 195 to 200 °C
12 | CCc1cc(C(=O)N2CCCCCC2C)nc2c(F)c(-c3ccc(NS(C)(=O)=O)cc3F)nn12 (stereo not drawn) [Compound D4] | 490 nM | > 25100 nM | 210 to 212 °C
13 | CCc1cc(C(=O)N2CCCCCC2C)nc2cc(-c3ccc(NC(=O)c4nccn4C)cc3F)nn12 (stereo not drawn) [Compound E1] | 617 nM | > 25100 nM | 210 to 215 °C
14 | CCc1cc(C(=O)N2CCCCCC2C)nc2cc(-c3ccc(NC(=O)Cc4ccncc4)cc3F)nn12 (stereo not drawn) [Compound E2] | 93.3 nM | > 25100 nM | 195 to 200 °C
15 | CCc1cc(C(=O)N2CCCCCC2C)nc2cc(-c3ccc(NC(=O)Cn4ccnc4)cc3F)nn12 (stereo not drawn) [Compound E3] | 132 nM | 6460 nM | 155 to 160 °C
16 | CCCC(=O)Nc1ccc(-c2cc3nc(C(=O)N4CCCCCC4C)cc(CC)n3n2)c(F)c1 (stereo not drawn) [Compound E4] | 182 nM | > 25100 nM | 175 to 180 °C
17 | C=CCC(=O)Nc1ccc(-c2cc3nc(C(=O)N4CCCCCC4C)cc(CC)n3n2)c(F)c1 (stereo not drawn) [Compound E5] | 138 nM | > 25100 nM | 170 to 175 °C
18 | CCc1cc(C(=O)N2CCCCCC2C)nc2cc(-c3ccc(NC(=O)CC#N)cc3F)nn12 (stereo not drawn) [Compound E6] | 166 nM | > 25100 nM | 245 to 250 °C
19 | CCc1cc(C(=O)N2CCCCCC2C)nc2cc(-c3ccc(NC(=O)CCOC)cc3F)nn12 (stereo not drawn) [Compound E7] | 117 nM | > 25100 nM | 175 to 180 °C
20 | CCc1cc(C(=O)N2CCCCCC2C)nc2cc(-c3ccc(NC(=O)C4(C)CC4)cc3F)nn12 (stereo not drawn) [Compound E8] | 468 nM | > 25100 nM | 225 to 230 °C
